Laboratory results published in patent US6667335B2, “Imidazole derivatives” (Hoffmann-La Roche Inc., priority 2001, dated 2003).
Structures can show the parent of a compound that is named as a salt.

Tested on: not given
Assay: not given
Settings: not given

Compound | melting point
Cc1cc(-n2cnc(Cn3ccnc3N)c2)ccc1Cl (as salt: hydrochloride) [Example 105, 1-[1-(4-Chloro-3-methyl-phenyl)-1H-imidazol-4-yl-methyl]-1H-imidazol-2-yl-amine-, Hydrochloride (1:2)] | 230 to 233 °C
CCc1nccn1Cc1cn(-c2cccc(SC(F)(F)F)c2)cn1 (as salt: hydrochloride) [Example 143] | 234 to 236 °C
CCc1nccn1Cc1cn(-c2ccc(F)c(C(C)(F)F)c2)cn1 (as salt: hydrochloride) [Example 151, 1H-Imidazole, 1-[[1-1-[3-(1,1-Difluoroethyl)-4-fluorophenyl]-1H-imidazol-4-yl]methyl]-ethyl-, Hydrochloride (1:2)] | > 200 °C (dec.)
CCc1nccn1Cc1cn(-c2cccc(C(C)C)c2)cn1 (as salt: hydrochloride) [Example 153] | > 200 °C (dec.)
CCc1nccn1Cc1cn(-c2cc(OC)cc(C(F)(F)F)c2)cn1 (as salt: hydrochloride) [Example 181] | 245 to 246 °C
c1ccc2nc(-n3cnc(Cn4ccnc4)c3)ccc2c1 (as salt: sodium) [Example 206, 2-(4-Imidazol-1-ylmethyl-imidazol-1-yl)-quinoline] | > 150 °C (dec.)
CCc1nccn1Cc1cn(-c2ccc(Cl)cn2)cn1 (as salt: sodium) [Example 213, 5-Chloro-2-[4-(2-ethyl-imidazol-1-ylmethyl)-imidazol-1-yl]-pyridine] | 182 to 185 °C
CC(=O)Nc1nccn1Cc1cn(-c2ccc(Cl)c(Cl)c2)cn1 [Example 110, N-{1-[1-(3,4-Dichloro-phenyl)-1H-imidazol-4-yl-methyl]-1H-imidazol-2-yl}-acetamide] | > 236 °C (dec.)
Cc1nccn1Cc1cnn(-c2ccc(Cl)c(Cl)c2)c1 [Example 114, 1-(3,4-Dichloro-phenyl)-4-(2-methyl-imidazol-1-yl-methyl)-1H-pyrazole] | 176 to 177 °C

The next lines start with the values.

melting point | Compound
247 to 248 °C | Cc1nccn1Cc1cn(-c2ccc3ccccc3c2)cn1 (as salt: hydrochloride) [Example 155, 1H-Imidazole, 2-Methyl-1-[[1-(naphtalen-2-yl)-1H-imidazol-4-yl]methyl]-, Hydrochloride (1:2)]
> 200 °C (dec.) | Cc1nccn1Cc1cn(-c2cccc(Cl)c2)cn1 (as salt: hydrochloride) [Example 173]
160 °C | Cc1nccn1Cc1cn(-c2ccc3ccccc3n2)cn1 (as salt: sodium) [Example 204, 2-[4-(2-Methyl-imidazol-1-ylmethyl)-imidazol-1-yl]-quinoline]
> 80 °C (dec.) | CCc1nccn1Cc1cn(-c2ccc3ccccc3n2)cn1 (as salt: sodium) [Example 205, 2-[4-(2-Ethyl-imidazol-1-ylmethyl)-imidazol-1-yl]-quinoline]
132 to 136 °C | CCc1nccn1Cc1cn(-c2cnc3ccccc3c2)cn1 (as salt: sodium) [Example 210, 3-[4-(2-Ethyl-imidazol-1-ylmethyl)-imidazol-1-yl]-quinoline]
168 to 172 °C | Cc1nccn1Cc1cn(-c2cnc3ccccc3c2)cn1 (as salt: sodium) [Example 211, 3-[4-(2-Methyl-imidazol-1-ylmethyl)-imidazol-1-yl]-quinoline]
192 to 196 °C | Cc1nccn1Cc1cn(-c2ccc(Cl)cn2)cn1 (as salt: sodium) [Example 212, 5-Chloro-2-[4-(2-methyl-imidazol-1-ylmethyl)-imidazol-1-yl]-pyridine]
> 125 °C (dec.) | Cc1nccn1Cc1cn(-c2ccc3ncccc3c2)cn1 (as salt: sodium) [Example 220, 6-[4-(2-Methyl-imidazol-1-ylmethyl)-imidazol-1-yl]-quinoline]
> 79 °C (dec.) | CCc1nccn1Cc1cn(-c2ccc3ncccc3c2)cn1 (as salt: sodium) [Example 221, 6-[4-(2-Ethyl-imidazol-1-ylmethyl)-imidazol-1-yl]-quinoline]
150 to 154 °C | Cc1nccn1Cc1cn(-c2cccc3cccnc23)cn1 (as salt: sodium) [Example 222, 8-[4-(2-Methyl-imidazol-1-ylmethyl)-imidazol-1-yl]-quinoline]
78 to 81 °C | CCc1nccn1Cc1cn(-c2cccc3cccnc23)cn1 (as salt: sodium) [Example 223, 8-[4-(2-Ethyl-imidazol-1-ylmethyl)-imidazol-1-yl]-quinoline]

Biological target: T1, NMDA-receptor subtype 2B (Rattus norvegicus, UniProt P35439+Q00960)
T1 construct: Membranes were prepared by homogenization of the whole brain minus cerebellum and medulla oblongata; from tissue; host or cells: rat whole brain minus cerebellum and medulla oblongata, membrane preparation
T1 sequence (Q00960 27-1482, other chains not shown): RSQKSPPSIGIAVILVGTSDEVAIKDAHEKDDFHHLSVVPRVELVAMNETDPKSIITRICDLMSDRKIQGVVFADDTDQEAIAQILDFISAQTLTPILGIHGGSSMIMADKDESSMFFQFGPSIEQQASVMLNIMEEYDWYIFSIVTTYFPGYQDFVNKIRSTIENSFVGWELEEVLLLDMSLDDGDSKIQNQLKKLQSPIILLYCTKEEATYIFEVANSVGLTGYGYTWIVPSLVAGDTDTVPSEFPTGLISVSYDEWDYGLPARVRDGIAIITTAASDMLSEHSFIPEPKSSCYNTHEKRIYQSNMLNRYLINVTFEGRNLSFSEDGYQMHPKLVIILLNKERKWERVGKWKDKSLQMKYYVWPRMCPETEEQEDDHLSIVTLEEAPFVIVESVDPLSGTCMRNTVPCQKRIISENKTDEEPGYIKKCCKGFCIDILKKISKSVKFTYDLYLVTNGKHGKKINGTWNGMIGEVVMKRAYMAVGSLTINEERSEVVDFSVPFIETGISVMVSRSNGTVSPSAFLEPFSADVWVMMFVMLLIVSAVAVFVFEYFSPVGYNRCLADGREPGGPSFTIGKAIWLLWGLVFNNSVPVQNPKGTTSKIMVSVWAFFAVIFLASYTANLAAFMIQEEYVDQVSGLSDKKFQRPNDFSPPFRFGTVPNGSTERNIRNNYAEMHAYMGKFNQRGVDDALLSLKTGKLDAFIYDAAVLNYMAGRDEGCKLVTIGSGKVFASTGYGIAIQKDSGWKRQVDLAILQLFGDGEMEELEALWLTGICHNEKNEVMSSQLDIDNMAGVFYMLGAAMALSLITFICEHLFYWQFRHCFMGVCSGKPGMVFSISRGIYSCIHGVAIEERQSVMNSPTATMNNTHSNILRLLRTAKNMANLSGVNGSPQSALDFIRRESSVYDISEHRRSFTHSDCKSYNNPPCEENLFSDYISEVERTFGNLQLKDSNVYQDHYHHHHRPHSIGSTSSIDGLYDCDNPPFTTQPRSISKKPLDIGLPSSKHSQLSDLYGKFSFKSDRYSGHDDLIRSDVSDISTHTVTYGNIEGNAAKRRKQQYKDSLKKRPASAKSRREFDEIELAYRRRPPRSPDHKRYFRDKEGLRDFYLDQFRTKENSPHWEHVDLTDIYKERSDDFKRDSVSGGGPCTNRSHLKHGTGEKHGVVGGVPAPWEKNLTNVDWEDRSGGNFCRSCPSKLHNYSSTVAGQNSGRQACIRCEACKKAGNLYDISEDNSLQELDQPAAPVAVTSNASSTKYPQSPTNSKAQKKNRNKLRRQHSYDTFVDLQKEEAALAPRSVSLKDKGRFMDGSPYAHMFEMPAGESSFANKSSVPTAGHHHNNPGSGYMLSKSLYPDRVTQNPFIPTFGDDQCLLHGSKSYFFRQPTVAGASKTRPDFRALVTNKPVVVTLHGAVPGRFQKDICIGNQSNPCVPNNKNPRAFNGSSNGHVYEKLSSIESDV
Assay: 3H-Ro 25-6981 binding (displacement) on rat brain membranes
Settings: displacement of 5 nM 3H-Ro 25-6981, rat whole brain membranes (minus cerebellum and medulla oblongata), 2 hours at 4° C.
Protocol: ^3H[R-(R*,S*)]-(α-(4-Hydroxy-phenyl)-β-methyl-4-(phenyl-methyl)-1-piperidine propanol)binding
Male Füllinsdorf albino rats weighing between 150-200 g were used. Membranes were prepared by homogenization of the whole brain minus cerebellum and medulla oblongata with a Polytron (10.000 rpm, 30 seconds), in 25 volumes of a cold Tris-HCl 50 mM, EDTA 10 mM, pH 7.1 buffer. The homogenate was centrifuged at 48,000 g for 10 minutes at 4° C. The pellet was resuspended using the Polytron in the same volume of buffer and the homogenate was incubated at 37° C. for 10 minutes. After centrifugation the pellet was homogenized in the same buffer and frozen at −80° C. for at least 16 hours but not more than 10 days. For the binding assay the homogenate was thawed at 37° C., centrifuged and the pellet was washed three times as above in a Tris-HCl 5 mM, pH 7.4 cold buffer. The final pellet was resuspended in the same buffer and used at a final concentration of […]. ^3H-Ro 25-6981 binding experiments were performed using a Tris-HCl 50 mM, pH 7.4 buffer. For displacement experiments 5 nM of ^3H-Ro 25-6981 were used and non specific binding was measured using 10 mM of tetrahydroisoquinoline and usually it accounts for 10% of the total. The incubation time was 2 hours at 4° C. and the assay was stopped by filtration on Whatmann GF/B glass fiber filters (Unifilter-96, Packard, Zürich, Switzerland). The filters were washed 5 times with cold buffer. The radioactivity on the filter was counted on a Packard Top-count microplate scintillation counter after addition of […] of microscint 40 (Canberra Packard S.A., Zuirich, Switzerland).
The effects of compounds were measured using a minimum of 8 concentrations and repeated at least once.

Compound | IC50 [nM]
1H-Imidazole, 1-(3,4-Dichlorophenyl)-4-[(4-methyl-1H-imidazol-1-yl)methyl]-, Hydrochloride (1:2) and 1H-Imidazole, 1-(3,4-Dichlorophenyl)-4-[(5-methyl-1H-imidazol-1-yl)methyl]-, Hydrochloride (1:2) (ratio 3:2) [Example 6] | 45
4-Imidazol-1-ylmethyl-1-(3-methylsulfanyl-phenyl)-1H-imidazole Hydrochloride (1:2) [Example 145] | 54
Cc1ccc(-n2cnc(Cn3ccnc3)c2)cc1C [Example 21] | 43
Cc1cc(-c2c[nH]c(Cn3ccnc3C)n2)ccc1F [Example 119, 1H-Imidazole, 1-[[4-(4-Fluoro-3-methylphenyl)-1H-imidazol-2-yl]methyl]-2-methyl-, Hydrochloride (1:2)] | 46
Cc1ccc(-c2cncc(Cn3ccnc3C)c2)cc1C [Example 130, 3-(3,4-Dimethyl-phenyl)-5-(2-methyl-imidazol-1-yl-methyl)-pyridine Hydrochloride (1:1)] | 65
Cc1ccc(-c2cncc(Cn3ccnc3C)c2)cc1Cl [Example 136, 3-(3-Chloro-4-methyl-phenyl)-5-(2-methyl-imidazol-1-yl-methyl)-pyridine Hydrochloride (1:1)] | 80
Cc1nccn1Cc1cncc(-c2ccc3c(c2)CCC3)c1 [Example 139, 3-Indan-5-yl-5-(2-methyl-imidazol-1-yl-methyl)-pyridine Hydrochloride (1:1)] | 65
Cc1nccn1Cc1cncc(-c2ccc(F)c(Cl)c2)c1 [Example 140, 3-(3-Chloro-4-fluoro-phenyl)-5-(2-methyl-imidazol-1-yl-methyl)-pyridine Hydrochloride (1:1)] | 40
Cc1nccn1Cc1cncc(-c2ccc(Cl)c(C(F)(F)F)c2)c1 [Example 141, 3-(4-Chloro-3-trifluoromethyl-phenyl)-5-(-2-methyl-imidazol-1-yl-methyl)-pyridine Hydrochloride (1:1)] | 39
CCc1nccn1Cc1cn(-c2cccc(SC(F)(F)F)c2)cn1 [Example 143] | 7.3
CCc1nccn1Cc1cn(-c2ccc(F)c(C(C)(F)F)c2)cn1 [Example 151, 1H-Imidazole, 1-[[1-1-[3-(1,1-Difluoroethyl)-4-fluorophenyl]-1H-imidazol-4-yl]methyl]-ethyl-, Hydrochloride (1:2)] | 14
CCc1nccn1Cc1cn(-c2cccc(C(C)C)c2)cn1 [Example 153] | 20
CCc1nccn1Cc1cn(-c2ccc(F)c(C(F)F)c2)cn1 [Example 164, 1H-Imidazole, 1-[[1-(3-Difluoromethyl-4-fluorophenyl)-1H-imidazol-4-yl]methyl]-2-ethyl-, Hydrochloride (1:2)] | 30
CSc1cccc(-n2cnc(Cn3ccnc3)c2)c1 [Example 168, 4-Imidazol-1-ylmethyl-1-(3-methylsulfanyl-phenyl)-1H-imidazole Hydrochloride (1:2)] | 38
CCc1nccn1Cc1cn(-c2cc(OC)cc(C(F)(F)F)c2)cn1 [Example 181] | 53
Cc1nccn1Cc1cncc(-c2ccc(F)c(C(F)F)c2)c1 [Example 225, 3-(3-Difluoromethyl-4-fluoro-phenyl)-5-(2-methyl-imidazol-1-ylmethyl)-pyridine] | 10
Cc1nccn1Cc1cncc(-c2cccc(C(C)(F)F)c2)c1 [Example 226, 3-[3-(1,1-Difluoro-ethyl)-phenyl]-5-(2-methyl-imidazol-1-ylmethyl)-pyridine] | 20

Other lines, results leading:

IC50 [nM] | Compound
27 | CSc1ccc(-n2cnc(Cn3ccnc3C)c2)cc1 [Example 27]
1 | Cc1cc(-n2cnc(Cn3ccnc3N)c2)ccc1Cl [Example 105, 1-[1-(4-Chloro-3-methyl-phenyl)-1H-imidazol-4-yl-methyl]-1H-imidazol-2-yl-amine-, Hydrochloride (1:2)]
10 | Cc1nccn1Cc1cn(-c2ccc3ccccc3c2)cn1 [Example 155, 1H-Imidazole, 2-Methyl-1-[[1-(naphtalen-2-yl)-1H-imidazol-4-yl]methyl]-, Hydrochloride (1:2)]
28 | Cc1nccn1Cc1cn(-c2cccc(Cl)c2)cn1 [Example 173]
